Experimental data published in US7521540B2, “CYR61 compositions and methods” (Munin Corporation, priority 1996, dated 2009).

How the values were obtained:
Limb mesenchymal cells [1] = experiment: Limb bud mesenchymal cell attachment; type: cell-based, mouse; conditions: within 1 hour of plating
Method: Cyr61, fibronectin (Gibco), or tenascin (Gibco) were diluted in 0.1% protease-free bovine serum albumin (BSA) in PBS with 0.5 mM PMSF, to a final concentrations of 10 or 50 μg/ml. A 10 μl drop/well was placed in a non-tissue culture treated 24-well plate (Corning), and incubated at room temperature for 2 hours. The wells were blocked with 1% BSA in PBS for 1 hour at room temperature, and rinsed with serum-free MEM (Modified Eagle's Medium). Limb mesenchymal cells, suspended at 5×10^5 cell/ml in serum-free MEM, were added at a volume of 400 μl/well, and incubated at 37° C., 5% CO2 for 1 or 3 hours. At each time point, the cell suspension was removed, the wells were rinsed with MEM and the remaining adherent cells were photographed.

Limb mesenchymal cells [2] = conditions: 50 μg/ml (200 nM), literature; cited from earlier work
αVβ3 integrin = molecular target: T1, αVβ3 integrin (Homo sapiens, UniProt P05106+P06756); experiment: Integrin binding assay (ligand-receptor ELISA)
T1 construct: αVβ3 integrin purification from HUVE cell lysates was done as described in Pytela et al; endogenous in cells; host or cells: HUVE cells
T1 sequence (P06756 31-889 limits assumed): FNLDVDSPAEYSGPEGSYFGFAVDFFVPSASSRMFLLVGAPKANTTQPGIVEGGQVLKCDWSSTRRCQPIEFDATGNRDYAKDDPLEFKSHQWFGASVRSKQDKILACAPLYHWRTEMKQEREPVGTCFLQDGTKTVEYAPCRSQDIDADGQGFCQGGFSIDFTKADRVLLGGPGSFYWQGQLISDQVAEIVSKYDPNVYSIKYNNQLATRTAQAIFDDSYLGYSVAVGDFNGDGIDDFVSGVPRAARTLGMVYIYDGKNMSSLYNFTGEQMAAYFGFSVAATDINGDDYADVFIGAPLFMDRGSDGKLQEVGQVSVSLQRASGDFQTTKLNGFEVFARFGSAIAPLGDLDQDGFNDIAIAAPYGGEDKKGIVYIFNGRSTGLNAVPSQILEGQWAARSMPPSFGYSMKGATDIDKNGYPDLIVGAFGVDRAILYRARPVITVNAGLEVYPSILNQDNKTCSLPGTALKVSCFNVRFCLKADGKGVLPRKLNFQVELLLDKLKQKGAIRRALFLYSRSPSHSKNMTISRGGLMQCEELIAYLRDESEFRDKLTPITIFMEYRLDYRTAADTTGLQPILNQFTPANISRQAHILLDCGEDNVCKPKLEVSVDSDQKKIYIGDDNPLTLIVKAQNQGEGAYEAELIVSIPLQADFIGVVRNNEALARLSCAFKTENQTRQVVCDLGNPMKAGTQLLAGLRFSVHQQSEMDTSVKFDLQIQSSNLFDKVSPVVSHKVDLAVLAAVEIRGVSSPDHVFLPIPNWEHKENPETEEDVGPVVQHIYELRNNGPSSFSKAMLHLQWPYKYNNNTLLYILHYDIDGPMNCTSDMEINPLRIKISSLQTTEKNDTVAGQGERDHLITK
T1 sequence (P06756 891-1048 partner limits assumed): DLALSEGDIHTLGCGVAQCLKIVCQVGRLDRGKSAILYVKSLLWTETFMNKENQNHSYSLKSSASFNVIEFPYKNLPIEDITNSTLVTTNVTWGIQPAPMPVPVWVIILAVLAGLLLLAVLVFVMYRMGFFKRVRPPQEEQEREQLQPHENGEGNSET
T1 sequence (P05106 27-788): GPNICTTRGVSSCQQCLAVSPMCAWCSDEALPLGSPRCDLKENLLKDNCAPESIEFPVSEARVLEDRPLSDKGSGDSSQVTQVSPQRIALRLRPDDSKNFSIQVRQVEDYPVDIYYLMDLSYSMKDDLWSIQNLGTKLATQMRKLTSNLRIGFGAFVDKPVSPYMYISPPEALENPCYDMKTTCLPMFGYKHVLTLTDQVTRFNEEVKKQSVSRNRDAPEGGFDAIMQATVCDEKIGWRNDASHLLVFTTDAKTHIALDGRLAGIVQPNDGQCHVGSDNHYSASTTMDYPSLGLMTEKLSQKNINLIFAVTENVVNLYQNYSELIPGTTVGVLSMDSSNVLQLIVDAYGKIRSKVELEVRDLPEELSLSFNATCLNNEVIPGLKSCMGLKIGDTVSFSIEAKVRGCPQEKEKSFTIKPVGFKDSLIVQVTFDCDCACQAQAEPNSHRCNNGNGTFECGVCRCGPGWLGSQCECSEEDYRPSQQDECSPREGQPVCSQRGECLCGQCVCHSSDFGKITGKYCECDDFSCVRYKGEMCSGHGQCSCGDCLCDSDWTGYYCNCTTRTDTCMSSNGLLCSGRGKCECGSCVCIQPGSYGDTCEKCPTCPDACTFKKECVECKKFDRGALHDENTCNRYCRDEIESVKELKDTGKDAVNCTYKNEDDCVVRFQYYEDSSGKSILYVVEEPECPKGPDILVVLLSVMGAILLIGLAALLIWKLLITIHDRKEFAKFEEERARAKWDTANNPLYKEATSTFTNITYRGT
Method: αVβ3 integrin purification from HUVE cell lysates was done as described in Pytela et al., Meth. Enzynmol., 144:475-489 (1987). Briefly, 10^8 cells were lysed in 1 ml of PBS containing 1 mM CaCl2, 1 mM MgCl2, 0.5 mM PMSF and 100 mM octylglucoside. The lysate was passed four times through a 0.5 ml column containing RGDSPK Sepharose (prepared from the cyanogen bromide activated Sepharose CL 4B as described in Lam, S. C-T., J. Biol. Chem., 267:5649-5655 (1992). The column was washed with 10 ml of the lysis buffer and the bound protein was eluted with 2 ml of the same buffer containing 1 mM RGDS peptide at room temperature. The αVβ3 integrin was dialyzed against PBS containing 1 mM CaCl2, 1 mM MgCl2, 5 mM octylglucoside and 0.1 mM PMSF with three changes of the dialysis buffer to remove the RGDS peptide. The protein was stored in aliquots at −70° C. The purity of the integrin was determined by SDS-PAGE under non-reducing conditions, followed by silver staining.
The integrin binding assay was developed in accordance with the disclosures in Brooks et al., Cell 85:683-693 (1996), and Lam, S. C-T (1992). Approximately 50 ng of the integrin in a total volume of 50 μl were added per well of 96-well immunological Pro-Bind plates (Falcon) and incubated overnight at 4° C. Non-specific sites were blocked with 20 mg/ml BSA in the same buffer and washed four times in that buffer. Treated plates were incubated with 1 μg/ml Cyr61 or 0.1 μg/ml vitronectin for 3 hours at room temperature. […] The final dilution of the LM609 ascites fluid was 1:200. Bound proteins were detected by specific polyclonal antisera (anti-Cyr61 antiserum was diluted 1:500 and anti-vitronectin antiserum was diluted 1:1000 in PBS containing 1 mM CaCl2, 1 mM MgCl2, and 5 mg/ml BSA) followed by a secondary antibody-horseradish peroxidase conjugate (1:20000 in the same buffer). […] Horseradish peroxidase (HRP) was detected with an HRP immunoassay kit (Bio-Rad Laboratories). The colorimetric reaction was developed for 15-30 minutes at room temperature, stopped by the addition of H2SO4, and the absorbance at 450 nm was measured. […]

platelets = experiment: Platelet adhesion assay; type: cell-based, human
Method: Microtiter wells were coated with purified recombinant Fisp12/mCTGF or Cyr61, and the adhesion of isolated platelets to these proteins was detected with ^125I-mAb15, an anti-β3 monoclonal antibody (Frelinger et al., J. Biol. Chem 265:6346-6352 [1990]). Platelets were obtained from venous blood drawn from healthy donors and collected into acid-citrate-dextrose (ACD). Washed platelets were prepared by diffenential centrifugation as described (Kinlough-Rathbone et al. Thromb. Haemostas 2:291-308 [1997]), and finally resuspended in HEPES-Tyrode's buffer (5 mM HEPES, pH 7.35, 1 mM MgCl2, 1 mM CaCl2, 135 mM NaCl, 2.7 mM KCl, 11.9 mM NaHCO3, 1 mg/ml dextrose and 3.5 mg/ml BSA). The platelet concentration was adjusted to […].
Microtiter wells (Immulon 2 removawell strips, Dynex Technologies, Inc.) were coated with Cyr61, Fisp12/mCTGF, or fibrinogen (25 μg/ml, 50 μl/well) incubated overnight at 22° C., and then blocked with 3% BSA at 37° C. for 2 hours. Washed platelets were added to the wells (100 μl/well) in the presence and absence of platelet agonists and incubated at 37° C. for 30 minutes. The wells were washed with HEPES-Tyrode's buffer and adherent platelets were detected with ^125I-mAb15, an anti-β3 monoclonal antibody. Exposure to the labeled antibody ([…], 50 μl/well) proceeded for 1 hour at 22° C. After extensive washing with HEPES-Tyrode's buffer, bound radioactivity was determined by γ-counting. In inhibition studies, washed platelets were pre-incubated with blocking peptides or antibodies at 37° C. for 15 minutes prior to addition to microtiter wells.
The anti-β3 antibody was radioiodinated with carrier-free Na^125I (Amersham Corp.) using the IODO-BEADS iodination reagent (Pierce) to a specific activity of approximately 2 μCi/μg. […] As controls, BSA- and fibrinogen-coated (KabiVitrum Inc.) wells were also used. Initially, the adhesion of unactivated versus activated platelets to immobilized Fisp12/mCTGF and Cyr61 was compared. To ensure that plateltes were not activated during the washing procedures, PGl2 (100 nM), which inhibits activation by raising platelet cAMP levels, was added to the platelet suspensions. […]

αllbβ3 = molecular target: T2, αllbβ3 (Homo sapiens, UniProt P05106+P08514); experiment: Solid-phase binding assay with purified integrin
T2 construct: from tissue; host or cells: outdated human platelets
Method: In these experiments, activated and unactivated αllbβ3 were purified from platelet lysates. Activated αllbβ3 was purified by RGD affinity chromatography, as described (Knezevic et al., J. Biol. Chem. 271:16416-16421 [1996]). Briefly, outdated human platelets were isolated by differential centrifugation and solubilized in lysis buffer (10 mM HEPES, pH 7.4, 0.15 M NaCl, containing 1 mM CaCl2, 1 mM MgCl2 100 μM leupeptin, 1 mM phenylmethylsulfonyl fluoride, 10 mM-ethylmaleimide, and 50 mM octylglucoside). The octylglucoside extract was incubated with 1 ml GRGDSPK-coupled Sepharose 4B overnight at 4° C. After washing with 15 ml column buffer (same as lysis buffer except it contained 25 mM octylglucoside), bound αllbβ3 was eluted with 1.7 mM H12 (2 ml) in column buffer. The H12 eluate was applied to a Sephacryl S-300 High Resolution column (1.5×95 cm), and αllbβ3 was eluted with 10 mM HEPES, pH 7.4, 0.15 M NaCl, 1 mM CaCl2, 1 mM MgCl2 and 25 mM octylglucoside.
Unactivated αllbβ3 was isolated by the method of Fitzgerald et al., Anal. Biochem. 151:169-177 (1985), with slight modifications. The flow-through fraction of the GRGDSPK-Sepharose column was applied to a concanavalin A-Sepharose 4B column (1×20 cm). Unbound proteins were washed with 50 ml column buffer, and bound αllbβ3 was then eluted with 100 mM mannose dissolved in column buffer. Fractions containing αllbβ3 were further purified on a Sephacryl S-300 High Resolution column
To perform the solid-phase binding assay, purified αllbβ3 was added to wells coated with either Cyr61 or Fisp12 (mCTGF) in the presence or absence of inhibitors and binding was allowed to proceed for 3 hours at 37° C. Unbound receptor was removed and the wells wee washed twice with HEPES-Tyrode's Buffer. The binding of purified αllbβ3 to Cyr61 or Fisp12/mCTGF immobilized onto microtiter wells was detected with ^125I-mAb15.

HUVE cells = experiment: Fisp12 cell attachment assay, HUVE cells; type: cell-based, human; conditions: EDTA added to culture medium; cell type not stated
Method: The capacity of Fisp12 to affect cell adhesion was also investigated. Fisp12 cell attachment assays were performed essentially as described (Oliver et al., [1989]). 96-well immunological plates were coated for 16 hours at 4° C. with 20 μg/ml Cyr61, Fisp12 or fibronectim (Gibco BRL) in PBS containing 0.1 mg/ml BSA and blocked with 10 mg/ml BSA for 1 hour at room temperature. HUVE cells were plated at 10^4 cells/well in F12K media with 10% FBS (Hyclone Laboratories, Inc., Logan, Utah); NIH 3T3 fibroblasts were plated at 3×10^4 cells/well and Mv1Lu cells were plated at 5×10^4 cells/well in minimal essential medium (MEM) with 10% FBS. After 1 hour incubation cells were fixed, stained with methylene blue and quantified as described (Oliver et al., [1989]). Cell spreading was examined on cells plated on 100 mm polystyrene petri dishes coated with 2.5 ml of a 20 μg/ml solution of Cyr61, Fisp12 or fibronectin. 10^7 cells were plated on each dish and cell spreading was analyzed 90 minutes after plating by microscopy at 100× magnification.

[3] = system: 1064SK primary human foreskin fibroblasts; experiment: Fibroblast adhesion assay (methylene blue, A620); type: cell-based
Method: The ability of Cyr61 to mediate cell adhesion in normal fibroblasts was investigated. Microtiter wells were coated with purified recombinant Cyr61 protein, and 1064SK primary human foreskin fibroblasts were allowed to adhere under serum-free conditions. […] 50 μl cell suspensions were plated on microtiter wells coated with varying concentrations (0.5-5.0 μg/ml) of Cyr61 protein. After incubation at 37° C. for 30 minutes, adherent cells were fixed and stained with methylene blue.
In another experiment, microtiter wells were coated with either BSA, Cyr61 (2 μg/ml), or vitronectin (VN; 0.5 μg/ml) and blocked with affinity-purified anti-Cyr61 antibodies for one hour at 37° C. before 1064SK cells were plated.
The effects of divalent cations in cell adhesion to Cyr61 was also investigated. […] Data are means from triplicate determinations. […] Inhibition by Ca^2+ is characteristic of adhesion through some members of the β1 family of integrins, including receptors that bind type I collagen, laminin, and vitronectin (integrins α2β1, α6β1, and αVβ1) in fibroblasts, as well as the lymphocyte-specific integrin αLβ2.
The effects of RGD peptides on Cyr61-mediated fibroblast binding was tested by plating cells in wells coated with Cyr61 (2 μg/ml). Type I collagen (2 μg/ml) or vitronectin (0.5 μg/ml), 2 mM GRGDSP or GRGESP peptide was then added.
Cells were also pre-incubated with 40 μg/ml monoclonal antibodies against the integrin α5 or the integrin αV subunits at room temperature for 30 minutes, then plated on wells coated with Cyr61 (2 μg/ml), vitronectin (0.5 μg/ml) or fibronectin (FN, 1 μg/ml). […] The data are means, representative of three experiments.
The 1064 SK cells were also analyzed using the monoclonal antibody JBIA, which binds the β1 integrin subunit. Cells were pre-incubated with the antibody (50 μg/ml) before plating on microtiter wells coated with Cyr61 (2 μg/ml), Type I collagen (2 μg/ml), or vitronectin (0.5 μg/ml). […] Data are means, representative of three experiments.
To identify the specific β1 integrin that mediates fibroblast adhesion to Cyr61, the inhibitory effects of function-blocking monoclonal antibodies were tested against various integrin α subunits. […] The data are means, representative of at least three experiments.

[4] = EDTA 5 mM, RGDS 0.5 mM, LM609 ascites 1:200

| Compound | effect of agent on adhesion of ADP-activated platelets to fibrinogen (platelets) | effect of agent on activated αllbβ3 binding to Fisp12/mCTGF and Cyr61 (αllbβ3) | effect of agent on activated platelet adhesion to Cyr61 and Fisp12/mCTGF (platelets) | also measured |
| --- | --- | --- | --- | --- |
| tenascin: ECM protein (Gibco) | – | – | – | attachment morphology of limb mesenchymal cells (Limb mesenchymal cells [1]): adhered as clusters of rounded cells; increase of chondrogenesis in micromass cultures (Limb mesenchymal cells [2]): 3 fold |
| RGDS | completely inhibited | specifically blocked | – | effect of agent on Cyr61 interaction with αVβ3 (αVβ3 integrin; [4]): inhibited; effect of agent on vitronectin interaction with αVβ3 (αVβ3 integrin; [4]): inhibited |
| H-HHLGGAKQAGDV-OH [H12] | completely inhibited | effectively inhibited | inhibited platelet adhesion to Cyr61 and Fisp12/mCTGF | – |
| O=C(O)CN(CCN(CC(=O)O)CC(=O)O)CC(=O)O [EDTA, Ethylenediamine tetraacetic acid] | completely inhibited | – | completely abolished platelet adhesion to both proteins | effect of agent on Fisp12-mediated cell attachment (HUVE cells): inhibited; 1064SK adhesion to Cyr61-coated wells with agent ([3]; Cyr61 2 μg/ml, agent at the level stated in the block, Mg2+ 5.0 mM after EDTA): about 0.12 A620; 1064SK adhesion to Type I collagen-coated wells with agent ([3]; Type I collagen 2 μg/ml): 0.10 A620; 1064SK adhesion to vitronectin-coated wells with agent ([3]; vitronectin 0.5 μg/ml): 0.05 A620 |
| vitronectin: Human plasma vitronectin, serum spreading factor | – | – | – | binding to immobilized αVβ3 integrin (αVβ3 integrin; 1 μg/ml Cyr61 or 0.1 μg/ml vitronectin): bound to the immobilized integrin; inhibition by anti-α6 antibody of binding mediated by the coated protein ([3]; anti-α6 20 μg/ml): 9% |
| echistatin | completely inhibited | effectively inhibited | completely blocked platelet adhesion to both proteins | – |
